Like-named read-outs stand apart in the source and are kept apart here.
Tested on: amphetamine-induced symptoms
Assay: antagonism of amphetamine-induced symptoms in rats (blocking of amphetamine behavior of cage movement)
Assay type: in vivo
Conditions: Rattus norvegicus, ip
Excerpt: The tranquilizing agents of the present invention are characterized by relief of such schizophrenic manifestations in humans as hallucinations, hostility, suspiciousness, emotional and social withdrawal, anxiety, agitation and tension. Standard procedures of detecting and comparing tranquilizing activity of compounds in this series and for which there is an excellent correlation with human efficacy is the antagonism of amphetamine-induced symptoms in rats test as taught by A. Weissman, et al., J. Pharmacol. Exp. Ther., 151, 339 (1966) and by Quinton, et al., Nature, 200, 178 (1963).
The effects of the compounds of the present invention on prominent amphetamine-induced symptoms were studied in rats by a rating scale modeled after the one reported by Quinton and Halliwell; and Weissman. Groups of five rats were placed in a covered plastic cage measuring approximately 26 cm. × 42 cm. × 16 cm. After a brief period of acclimation in the cage, the rats in each group were treated intraperitoneally (i.p.) with the test compound. […] On the basis of dose-response data after amphetamine it was possible to determine the effective dose of the compound necessary to antagonize or block the characteristic amphetamine behavior of cage movement for fifty percent of the rats tested (ED50). The time of rating chosen coincides with the peak action of amphetamine which is 60-80 min. after treatment with this agent.
Employing the above-described procedure, the following compounds were tested for their ability to block the behavior effects to amphetamine, the results being reported as the ED50 in mg./kg. at the indicated times: […]

[1] = test compound i.p., d-amphetamine sulfate 5 mg./kg. i.p. 1 hr. later, rated one hour after amphetamine, read-out: ED50, 1 hr.
[2] = test compound i.p., d-amphetamine sulfate 5 mg./kg. i.p. 5 hrs. later, rated one hour after amphetamine, read-out: ED50, 5 hrs.

Row | SMILES | ED50 (1 h, read-out: ED50, 1 hr.) [mg/kg] | ED50 [1] [mg/kg] | ED50 [2] [mg/kg]
1 | CN(C)CCCN1c2ccccc2Sc2ccc(Cl)cc21 [chlorpromazine, reference compound] | > 10 |  | 
2 | OC(CCCN1Cc2c(n(-c3ccc(F)cc3)c3ccc(F)cc23)C1)c1ccc(F)cc1 (centres unmarked) |  | 1 to 3.2 | 1 to 3.2
3 | CN1Cc2c(n(-c3ccc(F)cc3)c3ccc(F)cc23)C1 [X = F, Z = F, R = CH3, 7-Fluoro-4-(p-fluorophenyl)-2-methyl-1,2,3,4-tetrahydropyrrolo[3,4-b]indole] |  | 3.2 to 5.6 | > 10
